These are literature values, as cited in patent US6670388B1, “Fatty acid synthase inhibitors” (SmithKline Beecham Corporation, priority 2000, dated 2003).

One data set has as its system bacteria. Particulars: in vivo and in vitro.
The subject of data set [1] is all three condensing enzymes.

Structures are written as SMILES.

As to `C/C=C/C/C=C/CCC(=O)[C@H]1O[C@H]1C(N)=O` [cerulenin], the antibacterial activity result with bacteria was “bactericidal”. Besides, the “inhibition of FabB & F” value in the data set with FabB & F was “potent inhibitor of FabB & F”.
For `C=C/C(C)=C/[C@@]1(C)SC(=O)C(C)=C1O` [thiolactomycin], in data set [1], the “inhibition of condensing enzymes” value was “specifically inhibit all three condensing enzymes”. Also, in the data set with mammalian FASs, the “inhibition of mammalian FASs” value is listed as “does not inhibit mammalian FASs”. Further, the antibacterial activity entry in the data set on bacteria is “broad-spectrum antibacterial activity both in vivo and in vitro”.
